The term IC50 denotes the point on the concentration scale where inhibition reaches its midpoint. A low value points to higher potency.

SMILES strings stand for the structures.

The results in this text go back to US20100317593A1, “2,3-DIHYDRO-1H-INDENE COMPOUNDS” (ASTRAZENECA AB, priority 2009, published 2010).

The assay deals with T1, Glutathione-S-transferase tagged Bir3 domain of cIAP1 (L250-G350) (Homo sapiens, UniProt Q13490).
T1 construct: The cIAP1 Bir3 domain construct (aa L250-G350) was prepared from a full length cIAP1 clone; made in house; host or cells: Escherichia coli BL21 (DE3), pGEX-6P-1 vector
T1 sequence (Q13490 250-350): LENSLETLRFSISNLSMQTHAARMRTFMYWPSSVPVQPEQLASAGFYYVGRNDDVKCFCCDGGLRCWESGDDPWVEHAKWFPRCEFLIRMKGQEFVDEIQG
Description: Fluorescence polarization assay, cIAP1 Bir3 domain. In kind it is binding. The settings on record: 20 nM cIAP1-Bir3, 2.5 nM AbuRPF-K-5FAM tracer, 20-minute incubation. Here is the method: Materials: The cIAP1 Bir3 domain construct (aa L250-G350) was prepared from a full length cIAP1 clone (NCBI Reference Sequence: NM_001166.3). PCR was used to generate the Bir3 fragment which was inserted into a pGEX-6P-1 vector (GE LifeSciences) as a BamHI/XhoI fragment. Protein was prepared in Escherichia coli BL21 (DE3) grown at 37° C. containing ampicillin to an OD600 of 0.6. Protein expression was induced by 1 mM isopropyl β-D-1-thiogalactopyranoside (IPTG) for 3.75 hours.
Cells were lysed by sonication in buffer containing 100 mM Tris (pH 7.5), 150 mM NaCl, 5 mm dithiothreitol (DTT), 50 μM zinc acetate (ZnAc), ethylenediamine tetraacetic acid (EDTA) free Complete protease inhibitors (Roche Applied Science), 100 μg/mL lysozyme, and 0.5% Triton-X100. DNAse was added to the mixture after sonication. Proteins were purified from the soluble fraction using Glutathione Sepharose 4B resin (GE Lifesciences) followed by desalting on a PD-10 column (GE Lifesciences). This was followed by purification over an SEC 200 resin (GE Lifesciences). Final storage buffer consisted of 25 mM Tris, pH 7.5, 200 mM NaCl, 5 mM DTT, 50 uM ZnAc, 10% glycerol.
The fluorescence polarization assay was developed using Glutathione-S-transferase tagged Bir3 domain of cIAP1 (L250-G350). The tracer used was a synthetic peptide conjugated to 5-carboxyfluorescein (AbuRPF-K-5FAM).
Methods: Dilutions of cIAP1-Bir3 (20 nM) were added to 2.5 nM of fluorescent peptide tracer in assay buffer (final concentrations of 20 mM HEPES, pH 7.5, 1 mM DTT, 0.005% Tween-20 and 50 mM NaCl) containing various dilutions of binding inhibitors. Samples were read by a Tecan Ultra Evolution (Tecan US Inc, Durham N.C.) after a 20-minute incubation.
Fluorescence polarization values were plotted as a function of the antagonist concentration and the IC50 values were determined.
For orientation: Polarisation of emitted light reports the rotation of a fluorescent probe.
Molecule `CN[C@@H](C)C(=O)N[C@H](C(=O)N1CCC[C@H]1C(=O)N[C@H]1c2ccccc2C[C@H]1OCC#CC#CCO[C@@H]1Cc2ccccc2[C@@H]1NC(=O)[C@@H]1CCCN1C(=O)[C@@H](NC(=O)[C@H](C)NC)C1CCCCC1)C1CCCCC1` [Example 1, (S,S,2S,2′S)-N,N′-((1S,1′S,2R,2′R)-2,2′-(hexa-2,4-diyne-1,6-diylbis(oxy))bis(2,3-dihydro-1H-indene-2,1-diyl))bis(1-((S)-2-cyclohexyl-2-((S)-2-(methylamino)propanamido)acetyl)pyrrolidine-2-carboxamide)] had an IC50 of 12 nM. That is a double-digit nanomolar value.
For `C#CCO[C@@H]1Cc2ccccc2[C@@H]1NC(=O)[C@@H]1CCCN1C(=O)[C@@H](NC(=O)[C@H](C)NC)C1CCCCC1` [Example 2, (S)-1-((S)-2-cyclohexyl-2-((S)-2-(methylamino)propanamido)acetyl)-N-((1S,2R)-2-(prop-2-ynyloxy)-2,3-dihydro-1H-inden-1-yl)pyrrolidine-2-carboxamide] the value was 15 nM.
For `CN[C@@H](C)C(=O)N[C@H](C(=O)N1CCC[C@H]1C(=O)N[C@H]1c2ccccc2C[C@H]1OCCCCCCO[C@@H]1Cc2ccccc2[C@@H]1NC(=O)[C@@H]1CCCN1C(=O)[C@@H](NC(=O)[C@H](C)NC)C1CCCCC1)C1CCCCC1` [Example 3, (S,S,2S,2′S)-N,N′-((1S,1′S,2R,2′R)-2,2′-(Hexane-1,6-diylbis(oxy))bis(2,3-dihydro-1H-indene-2,1-diyl))bis(1-((S)-2-cyclohexyl-2-((S)-2-(methylamino)propanamido)acetyl)pyrrolidine-2-carboxamide)] the value was 13 nM; for `CN[C@@H](C)C(=O)N[C@H](C(=O)N1CCC[C@H]1C(=O)N[C@H]1c2ccccc2C[C@@H]1OCC#CC#CCO[C@H]1Cc2ccccc2[C@@H]1NC(=O)[C@@H]1CCCN1C(=O)[C@@H](NC(=O)[C@H](C)NC)C1CCCCC1)C1CCCCC1` [Example 4, (S,S,2S,2′S)-N,N′-((1S,1′S,2S,2′S)-2,2′-(hexa-2,4-diyne-1,6-diylbis(oxy))bis(2,3-dihydro-1H-indene-2,1-diyl))bis(1-((S)-2-cyclohexyl-2-((S)-2-(methylamino)propanamido)acetyl)pyrrolidine-2-carboxamide)], 42.9 nM.
